Assay: head-to-tail macrolactamisation of side-chain-protected linear peptides (crude from 2-ClTrt resin, TFE cleavage); DEPBT (2-2.5 equiv), NEt3 (10-12 equiv), 24 h; AcOH quench, prep HPLC
Settings: MeCN with <1-10% DMSO (3i: 5% DMF in MeCN), 2.0 mM, 25.0 °C

CC(C)C[C@@H]1NC(=O)[C@H](CC(C)C)NC(=O)[C@H](CC(=O)NC(c2ccccc2)(c2ccccc2)c2ccccc2)NC(=O)[C@@H]2CCCN2C(=O)[C@@H]2CCCN2C(=O)[C@H](CSC(c2ccccc2)(c2ccccc2)c2ccccc2)NC(=O)[C@H](CC(C)C)NC(=O)[C@H](CCC(=O)OC(C)(C)C)NC1=O [H-Glu(OtBu)-Leu-Cys(Trt)-Pro-Pro-Asn(Trt)-Leu-Leu-OH]
ring closure, isolated yield (from CC(C)C[C@H](NC(=O)[C@H](CC(C)C)NC(=O)[C@H](CC(=O)NC(c1ccccc1)(c1ccccc1)c1ccccc1)NC(=O)[C@@H]1CCCN1C(=O)[C@@H]1CCCN1C(=O)[C@H](CSC(c1ccccc1)(c1ccccc1)c1ccccc1)NC(=O)[C@H](CC(C)C)NC(=O)[C@@H](N)CCC(=O)OC(C)(C)C)C(=O)O, 24-membered ring, 24.0 h): 26%

Cc1c(C)c(S(=O)(=O)NC(=N)NCCC[C@@H]2NC(=O)[C@H](C)NC(=O)[C@H](Cc3cn(C(=O)OC(C)(C)C)c4ccccc34)NC(=O)[C@H]([C@@H](C)OC(C)(C)C)NC(=O)[C@H](CSC(c3ccccc3)(c3ccccc3)c3ccccc3)NC2=O)c(C)c2c1OC(C)(C)C2 [H-Arg(Pbf)-Cys(Trt)-Thr(tBu)-Trp(Boc)-Ala-OH]
ring closure, isolated yield (from Cc1c(C)c(S(=O)(=O)NC(=N)NCCC[C@H](N)C(=O)N[C@@H](CSC(c2ccccc2)(c2ccccc2)c2ccccc2)C(=O)N[C@H](C(=O)N[C@@H](Cc2cn(C(=O)OC(C)(C)C)c3ccccc23)C(=O)N[C@@H](C)C(=O)O)[C@@H](C)OC(C)(C)C)c(C)c2c1OC(C)(C)C2, 15-membered ring, 24.0 h): 16%

CC[C@H](C)[C@@H]1NC(=O)[C@H](CSC(c2ccccc2)(c2ccccc2)c2ccccc2)NC(=O)[C@@H]2CCCN2C(=O)[C@H](CCCCNC(=O)OC(C)(C)C)NC(=O)[C@H](COC(C)(C)C)NC(=O)[C@H](CCCCNC(=O)OC(C)(C)C)NC(=O)[C@H](CCCCNC(=O)OC(C)(C)C)NC(=O)[C@H](Cc2ccccc2)NC1=O
ring closure, isolated yield (from CC[C@H](C)[C@H](NC(=O)[C@H](CSC(c1ccccc1)(c1ccccc1)c1ccccc1)NC(=O)[C@@H]1CCCN1C(=O)[C@H](CCCCNC(=O)OC(C)(C)C)NC(=O)[C@H](COC(C)(C)C)NC(=O)[C@@H](N)CCCCNC(=O)OC(C)(C)C)C(=O)N[C@@H](Cc1ccccc1)C(=O)N[C@@H](CCCCNC(=O)OC(C)(C)C)C(=O)O, 24-membered ring, 24.0 h): 36%

Cc1c(C)c(S(=O)(=O)NC(=N)NCCC[C@@H]2NC(=O)[C@H](C)NC(=O)[C@H](Cc3cn(C(=O)OC(C)(C)C)c4ccccc34)NC(=O)[C@H]([C@@H](C)OC(C)(C)C)NC(=O)[C@@H]3CCCN3C2=O)c(C)c2c1OC(C)(C)C2 [H-Arg(Pbf)-Pro-Thr(tBu)-Trp(Boc)-Ala-OH]
ring closure, isolated yield (from Cc1c(C)c(S(=O)(=O)NC(=N)NCCC[C@H](N)C(=O)N2CCC[C@H]2C(=O)N[C@H](C(=O)N[C@@H](Cc2cn(C(=O)OC(C)(C)C)c3ccccc23)C(=O)N[C@@H](C)C(=O)O)[C@@H](C)OC(C)(C)C)c(C)c2c1OC(C)(C)C2, 15-membered ring, 24.0 h): 0%

CC[C@H](C)[C@@H]1NC(=O)[C@@H]2CCCN2C(=O)[C@H](CCCCNC(=O)OC(C)(C)C)NC(=O)[C@H](CSC(c2ccccc2)(c2ccccc2)c2ccccc2)NC(=O)[C@H](Cc2cn(C(=O)OC(C)(C)C)c3ccccc23)NC(=O)[C@H]([C@@H](C)OC(C)(C)C)NC(=O)[C@@H]2CCCN2C1=O [H-Trp(Boc)-Cys(Trt)-Lys(Boc)-Pro-Ile-Pro-Thr(tBu)-OH]
ring closure, isolated yield (from CC[C@H](C)[C@H](NC(=O)[C@@H]1CCCN1C(=O)[C@H](CCCCNC(=O)OC(C)(C)C)NC(=O)[C@H](CSC(c1ccccc1)(c1ccccc1)c1ccccc1)NC(=O)[C@@H](N)Cc1cn(C(=O)OC(C)(C)C)c2ccccc12)C(=O)N1CCC[C@H]1C(=O)N[C@H](C(=O)O)[C@@H](C)OC(C)(C)C, 21-membered ring, 24.0 h): 12%

CC[C@H](C)[C@@H]1NC(=O)[C@H](COC(C)(C)C)NC(=O)[C@H](CCCCNC(=O)OC(C)(C)C)NC(=O)[C@H](Cc2ccccc2)NC(=O)[C@@H]2CCCN2C(=O)[C@H](CCCCNC(=O)OC(C)(C)C)NC(=O)[C@H](CSC(c2ccccc2)(c2ccccc2)c2ccccc2)NC(=O)[C@H](CCCCNC(=O)OC(C)(C)C)NC1=O
ring closure, isolated yield (from CC[C@H](C)[C@H](NC(=O)[C@H](COC(C)(C)C)NC(=O)[C@H](CCCCNC(=O)OC(C)(C)C)NC(=O)[C@H](Cc1ccccc1)NC(=O)[C@@H]1CCCN1C(=O)[C@H](CCCCNC(=O)OC(C)(C)C)NC(=O)[C@H](CSC(c1ccccc1)(c1ccccc1)c1ccccc1)NC(=O)[C@@H](N)CCCCNC(=O)OC(C)(C)C)C(=O)O, 24-membered ring, 24.0 h): 22%

CC[C@H](C)[C@@H]1NC(=O)[C@@H]2CCCN2C(=O)[C@H](CCCCNC(=O)OC(C)(C)C)NC(=O)[C@H](CSC(c2ccccc2)(c2ccccc2)c2ccccc2)NC(=O)[C@H](Cc2cn(C(=O)OC(C)(C)C)c3ccccc23)NC(=O)[C@H]([C@@H](C)OC(C)(C)C)NC(=O)[C@@H]2CCCN2C1=O [H-Cys(Trt)-Lys(Boc)-Pro-Ile-Pro-Thr(tBu)-Trp(Boc)-OH]
ring closure, isolated yield (from CC[C@H](C)[C@H](NC(=O)[C@@H]1CCCN1C(=O)[C@H](CCCCNC(=O)OC(C)(C)C)NC(=O)[C@@H](N)CSC(c1ccccc1)(c1ccccc1)c1ccccc1)C(=O)N1CCC[C@H]1C(=O)N[C@H](C(=O)N[C@@H](Cc1cn(C(=O)OC(C)(C)C)c2ccccc12)C(=O)O)[C@@H](C)OC(C)(C)C, 21-membered ring): 0%

Cc1c(C)c(S(=O)(=O)NC(=N)NCCC[C@@H]2NC(=O)[C@H](C)NC(=O)[C@H](CSC(c3ccccc3)(c3ccccc3)c3ccccc3)NC(=O)[C@H]([C@@H](C)OC(C)(C)C)NC(=O)[C@H](CSC(c3ccccc3)(c3ccccc3)c3ccccc3)NC2=O)c(C)c2c1OC(C)(C)C2 [H-Arg(Pbf)-Cys(Trt)-Thr(tBu)-Cys(Trt)-Ala-OH]
ring closure, isolated yield (from Cc1c(C)c(S(=O)(=O)NC(=N)NCCC[C@H](N)C(=O)N[C@@H](CSC(c2ccccc2)(c2ccccc2)c2ccccc2)C(=O)N[C@H](C(=O)N[C@@H](CSC(c2ccccc2)(c2ccccc2)c2ccccc2)C(=O)N[C@@H](C)C(=O)O)[C@@H](C)OC(C)(C)C)c(C)c2c1OC(C)(C)C2, 15-membered ring, 24.0 h): 16%

CC[C@H](C)[C@@H]1NC(=O)[C@H](Cc2cn(C(=O)OC(C)(C)C)c3ccccc23)NC(=O)[C@@H]2CCCN2C(=O)[C@H](CSC(c2ccccc2)(c2ccccc2)c2ccccc2)NC(=O)[C@@H]2CCCN2C(=O)[C@H](CCCCNC(=O)OC(C)(C)C)NC(=O)[C@H]([C@@H](C)OC(C)(C)C)NC1=O [H-Thr(tBu)-Lys(Boc)-Pro-Cys(Trt)-Pro-Trp(Boc)-Ile-OH]
ring closure, isolated yield (from CC[C@H](C)[C@H](NC(=O)[C@H](Cc1cn(C(=O)OC(C)(C)C)c2ccccc12)NC(=O)[C@@H]1CCCN1C(=O)[C@H](CSC(c1ccccc1)(c1ccccc1)c1ccccc1)NC(=O)[C@@H]1CCCN1C(=O)[C@H](CCCCNC(=O)OC(C)(C)C)NC(=O)[C@@H](N)[C@@H](C)OC(C)(C)C)C(=O)O, 21-membered ring, 24.0 h): 29%

Cc1c(C)c(S(=O)(=O)NC(=N)NCCC[C@@H]2NC(=O)[C@H](C)NC(=O)[C@H](C)NC(=O)[C@H]([C@@H](C)OC(C)(C)C)NC(=O)[C@H](CSC(c3ccccc3)(c3ccccc3)c3ccccc3)NC2=O)c(C)c2c1OC(C)(C)C2 [H-Arg(Pbf)-Cys(Trt)-Thr(tBu)-Ala-Ala-OH]
ring closure, isolated yield (from Cc1c(C)c(S(=O)(=O)NC(=N)NCCC[C@H](N)C(=O)N[C@@H](CSC(c2ccccc2)(c2ccccc2)c2ccccc2)C(=O)N[C@H](C(=O)N[C@@H](C)C(=O)N[C@@H](C)C(=O)O)[C@@H](C)OC(C)(C)C)c(C)c2c1OC(C)(C)C2, 15-membered ring, 24.0 h): 21%

Cc1c(C)c(S(=O)(=O)NC(=N)NCCC[C@@H]2NC(=O)[C@H](C)NC(=O)[C@H](Cc3cn(C(=O)OC(C)(C)C)c4ccccc34)NC(=O)[C@H]([C@@H](C)OC(C)(C)C)NC(=O)[C@H](C)NC2=O)c(C)c2c1OC(C)(C)C2 [H-Arg(Pbf)-Ala-Thr(tBu)-Trp(Boc)-Ala-OH]
ring closure, isolated yield (from Cc1c(C)c(S(=O)(=O)NC(=N)NCCC[C@H](N)C(=O)N[C@@H](C)C(=O)N[C@H](C(=O)N[C@@H](Cc2cn(C(=O)OC(C)(C)C)c3ccccc23)C(=O)N[C@@H](C)C(=O)O)[C@@H](C)OC(C)(C)C)c(C)c2c1OC(C)(C)C2, 15-membered ring, 24.0 h): 27%

CC(C)C[C@@H]1NC(=O)[C@H](CSC(c2ccccc2)(c2ccccc2)c2ccccc2)NC(=O)[C@H](CC(C)C)NC(=O)[C@@H]2CCCN2C(=O)[C@H](CC(=O)NC(c2ccccc2)(c2ccccc2)c2ccccc2)NC(=O)[C@H](CC(C)C)NC(=O)[C@@H]2CCCN2C(=O)[C@H](CCC(=O)OC(C)(C)C)NC1=O [H-Leu-Glu(OtBu)-Pro-Leu-Asn(Trt)-Pro-Leu-Cys(Trt)-OH]
ring closure, isolated yield (from CC(C)C[C@H](NC(=O)[C@@H]1CCCN1C(=O)[C@H](CC(=O)NC(c1ccccc1)(c1ccccc1)c1ccccc1)NC(=O)[C@H](CC(C)C)NC(=O)[C@@H]1CCCN1C(=O)[C@H](CCC(=O)OC(C)(C)C)NC(=O)[C@@H](N)CC(C)C)C(=O)N[C@@H](CSC(c1ccccc1)(c1ccccc1)c1ccccc1)C(=O)O, 24-membered ring, 24.0 h): 23%

CC[C@H](C)[C@@H]1NC(=O)[C@@H]2CCCN2C(=O)[C@H](CCCCNC(=O)OC(C)(C)C)NC(=O)[C@H](CSC(c2ccccc2)(c2ccccc2)c2ccccc2)NC(=O)[C@H](Cc2cn(C(=O)OC(C)(C)C)c3ccccc23)NC(=O)[C@H]([C@@H](C)OC(C)(C)C)NC(=O)[C@@H]2CCCN2C1=O [H-Lys(Boc)-Pro-Ile-Pro-Thr(tBu)-Trp(Boc)-Cys(Trt)-OH]
ring closure, isolated yield (from CC[C@H](C)[C@H](NC(=O)[C@@H]1CCCN1C(=O)[C@@H](N)CCCCNC(=O)OC(C)(C)C)C(=O)N1CCC[C@H]1C(=O)N[C@H](C(=O)N[C@@H](Cc1cn(C(=O)OC(C)(C)C)c2ccccc12)C(=O)N[C@@H](CSC(c1ccccc1)(c1ccccc1)c1ccccc1)C(=O)O)[C@@H](C)OC(C)(C)C, 21-membered ring): 0%

— paper PMC9286623
